Source: the NIST ThermoML archive (doi:10.1021/je049672l)
Numbers after ± are expanded uncertainties.

Settings: for mass density: Vibrating tube method; for vapor or sublimation pressure: Closed cell (Static) method

CC(C)C [2-methylpropane]
Fluid (supercritical or subcritical phases)
Settings | mass density [kg/m3]
240 K, 484.1 kPa | 617.68 ± 0.26
240 K, 1027.4 kPa | 618.3 ± 0.27
240 K, 1538.4 kPa | 618.86 ± 0.27
240 K, 2037.8 kPa | 619.41 ± 0.28
240 K, 2522.8 kPa | 619.95 ± 0.28
240 K, 3029.3 kPa | 620.49 ± 0.29
240 K, 3501.9 kPa | 621 ± 0.29
240 K, 4038.4 kPa | 621.58 ± 0.29
240 K, 4542.1 kPa | 622.1 ± 0.3
240 K, 5022.8 kPa | 622.62 ± 0.3
240 K, 5522.1 kPa | 623.14 ± 0.31
240 K, 5987.3 kPa | 623.62 ± 0.31
240 K, 6540.8 kPa | 624.19 ± 0.32
240 K, 7010.9 kPa | 624.66 ± 0.32
260 K, 517.1 kPa | 595.93 ± 0.27
260 K, 947.4 kPa | 596.52 ± 0.27
260 K, 1503.8 kPa | 597.28 ± 0.28
260 K, 1984.7 kPa | 597.94 ± 0.28
260 K, 2532 kPa | 598.66 ± 0.29
260 K, 3005.3 kPa | 599.28 ± 0.29
260 K, 3472.2 kPa | 599.9 ± 0.3
260 K, 4015.9 kPa | 600.6 ± 0.3
260 K, 4464.7 kPa | 601.16 ± 0.31
260 K, 4915.7 kPa | 601.73 ± 0.31
260 K, 5481.6 kPa | 602.44 ± 0.32
260 K, 5953.7 kPa | 603.05 ± 0.32
260 K, 6532 kPa | 603.75 ± 0.33
260 K, 7031.7 kPa | 604.37 ± 0.33
280 K, 512.2 kPa | 573.26 ± 0.27
280 K, 996 kPa | 574.1 ± 0.28
280 K, 1532.9 kPa | 575.01 ± 0.28
280 K, 2000.6 kPa | 575.8 ± 0.29
280 K, 2508.1 kPa | 576.64 ± 0.29
280 K, 2999.4 kPa | 577.44 ± 0.3
280 K, 3506 kPa | 578.27 ± 0.3
280 K, 4015.2 kPa | 579.09 ± 0.31
280 K, 4460.5 kPa | 579.8 ± 0.31
280 K, 4938.8 kPa | 580.54 ± 0.32
280 K, 5494.5 kPa | 581.39 ± 0.33
280 K, 5986.9 kPa | 582.16 ± 0.33
280 K, 6507.2 kPa | 582.93 ± 0.34
280 K, 6980.4 kPa | 583.64 ± 0.34
300 K, 476.5 kPa | 548.51 ± 0.28
300 K, 1017.6 kPa | 549.71 ± 0.29
300 K, 1462.4 kPa | 550.7 ± 0.29
300 K, 1999.9 kPa | 551.86 ± 0.3
300 K, 2533.3 kPa | 552.99 ± 0.3
300 K, 3021.3 kPa | 554.01 ± 0.31
300 K, 3526.2 kPa | 555.05 ± 0.31
300 K, 3965.8 kPa | 555.93 ± 0.32
300 K, 4482.8 kPa | 556.96 ± 0.32
300 K, 4980.2 kPa | 557.93 ± 0.33
300 K, 5467.8 kPa | 558.87 ± 0.34
300 K, 5953.2 kPa | 559.79 ± 0.34
300 K, 6460.3 kPa | 560.72 ± 0.35
300 K, 7025.2 kPa | 561.79 ± 0.35
320 K, 1063 kPa | 522.78 ± 0.29
320 K, 1503.5 kPa | 524.1 ± 0.3
320 K, 2072.9 kPa | 525.74 ± 0.31
320 K, 2548.7 kPa | 527.08 ± 0.31
320 K, 3037.4 kPa | 528.43 ± 0.32
320 K, 3521.6 kPa | 529.72 ± 0.32
320 K, 4027.5 kPa | 531.05 ± 0.33
320 K, 4496.4 kPa | 532.26 ± 0.33
320 K, 4946.7 kPa | 533.39 ± 0.34
320 K, 5450.3 kPa | 534.62 ± 0.35
320 K, 5960.5 kPa | 535.86 ± 0.35
320 K, 6511.5 kPa | 537.15 ± 0.36
320 K, 6995.3 kPa | 538.27 ± 0.37
340 K, 1494.6 kPa | 493.98 ± 0.3
340 K, 2007.1 kPa | 496.16 ± 0.31
340 K, 2499.6 kPa | 498.13 ± 0.32
340 K, 3002.8 kPa | 500.07 ± 0.33
340 K, 3503.8 kPa | 501.94 ± 0.33
340 K, 4023.8 kPa | 503.83 ± 0.34
340 K, 4507.3 kPa | 505.51 ± 0.35
340 K, 5017.1 kPa | 507.23 ± 0.35
340 K, 5520.7 kPa | 508.89 ± 0.36
340 K, 5998.3 kPa | 510.42 ± 0.37
340 K, 6512.9 kPa | 512.03 ± 0.37
340 K, 6962.7 kPa | 513.39 ± 0.38
360 K, 2008.5 kPa | 460.57 ± 0.3
360 K, 2503.6 kPa | 463.81 ± 0.31
360 K, 2997.5 kPa | 466.82 ± 0.32
360 K, 3502.9 kPa | 469.71 ± 0.32
360 K, 4027.6 kPa | 472.55 ± 0.33
360 K, 4532.2 kPa | 475.11 ± 0.34
360 K, 5024.7 kPa | 477.51 ± 0.35
360 K, 5482.2 kPa | 479.63 ± 0.35
360 K, 6006.8 kPa | 481.96 ± 0.36
360 K, 6485.4 kPa | 484.01 ± 0.37
360 K, 6987.7 kPa | 486.08 ± 0.38
380 K, 2517.9 kPa | 417.11 ± 0.29
380 K, 3027.5 kPa | 423.54 ± 0.3
380 K, 3511 kPa | 428.79 ± 0.31
380 K, 4014.9 kPa | 433.63 ± 0.32
380 K, 4487.2 kPa | 437.71 ± 0.32
380 K, 4990.6 kPa | 441.69 ± 0.33
380 K, 5519.1 kPa | 445.53 ± 0.34
380 K, 6019.7 kPa | 448.91 ± 0.35
380 K, 6503.3 kPa | 451.96 ± 0.35
380 K, 6952.1 kPa | 454.64 ± 0.36

Liquid
Settings | mass density [kg/m3] | vapor or sublimation pressure [kPa]
240 K | 617.17 ± 0.26 | 40.1 ± 0.5
260 K | 595.32 ± 0.27 | 94.6 ± 0.5
280 K | 572.74 ± 0.27 | 197.8 ± 0.6
300 K | 548.27 ± 0.28 | 368.6 ± 0.7
320 K | 521.48 ± 0.29 | 632.5 ± 1
340 K | 491.87 ± 0.29 | 1013.7 ± 1.6
360 K | 457.33 ± 0.28 | 1541.6 ± 2.4
380 K | 413.34 ± 0.27 | 2250.4 ± 3.5
